# PMC8760635 (Analytical chemistry, 2021)
# Read-outs that look alike come from different tables or passages of the source.
# Molecular target: recombinant His6-tagged human FABP5 (Homo sapiens, UniProt Q01469)
# Test: Isothermal titration calorimetry
# Assay type: binding
# Chain of recombinant His6-tagged human FABP5 (Q01469 whole entry): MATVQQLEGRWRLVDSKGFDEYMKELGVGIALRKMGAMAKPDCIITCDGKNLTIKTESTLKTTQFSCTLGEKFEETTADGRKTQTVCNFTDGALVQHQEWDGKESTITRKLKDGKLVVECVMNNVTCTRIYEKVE
Structure (SMILES),Kd [µM],"Kd (read-out: dissociation constant (Kd), ITC, 25 °C, 100 mM NaCl, 30 mM Tris (pH 7.5), 5% glycerol, one-binding-site model, ± error of the fit) [µM]"
"O=C(O)C(F)(F)C(F)(F)C(F)(F)C(F)(F)C(F)(F)C(F)(F)C(F)(F)F [PFOA, perfluorooctanoic acid]",77 ± 17,
"O=P(O)(O)C(F)(F)C(F)(F)C(F)(F)C(F)(F)C(F)(F)C(F)(F)C(F)(F)C(F)(F)F [PFOPA, perfluorooctanephosphonic acid]",,167 ± 34
